The record followed here is US12715849B2, “Herbicidal tetrazole compounds” (SYNGENTA CROP PROTECTION AG, priority 2020, dated 2026).

Common to all, as to test: Glasshouse herbicidal test, pre- and post-emergence (Table B1)
What all share (type): in vivo

Assay [1] has as its system Amaranthus palmeri (AMAPA). The note with it: 130 g/h, evaluated after 13 days; for percentage damage caused to the plant, POST Application AMAPA: post-emergence; for percentage damage caused to the plant, PRE Application AMAPA: pre-emergence. The method, then:
(§1) Seeds of a variety of test species are sown in standard soil in pots (Lolium perenne (LOLPE), Amaranthus retoflexus (AMARE), Amaranthus palmeri (AMAPA), Ablution theophrasti (ABUTH), Setaria faberi (SETFA), Echinochloa crus-galli (ECHCG), Ipomoea hederacea (IPOHE)). After cultivation for one day (pre-emergence) or after 8 days cultivation (post-emergence) under controlled conditions in a glasshouse (at 24/16° C., day/night; 14 hours light; 65% humidity), the plants are sprayed with an aqueous spray solution derived from the formulation of the technical active ingredient in acetone/water (50:50) solution containing 0.5% Tween 20 (polyoxyethelyene sorbitan monolaurate, CAS RN 9005-64-5). Compounds are applied at 130 g/h unless otherwise indicated. The test plants are then grown in a glasshouse under controlled conditions in a glasshouse (at 24/16° C., day/night; 14 hours light; 65% humidity) and watered twice daily. After 13 days for pre and post-emergence, the test is evaluated for the percentage damage caused to the plant. The biological activities are shown in the following table on a five-point scale (5=80-100%; 4=60-79%; 3=40-59%; 2=20-39%; 1=0-19%).

Assay [2] has as its system Amaranthus retoflexus (AMARE). The note with it: 130 g/h, evaluated after 13 days; for percentage damage caused to the plant, POST Application AMARE: post-emergence; for percentage damage caused to the plant, PRE Application AMARE: pre-emergence. The procedure:
as §1

Assay [3] has as its system Echinochloa crus-galli (ECHCG). Particulars: 130 g/h, evaluated after 13 days; for percentage damage caused to the plant, POST Application ECHCG: post-emergence; for percentage damage caused to the plant, PRE Application ECHCG: pre-emergence. The procedure: as §1
The subject of assay [4] is Ipomoea hederacea (IPOHE). Particulars: 130 g/h, evaluated after 13 days; for percentage damage caused to the plant, POST Application IPOHE: post-emergence; for percentage damage caused to the plant, PRE Application IPOHE: pre-emergence. The method, then:
as §1

Assay [5] relates to Setaria faberi (SETFA). The note with it: 130 g/h, evaluated after 13 days; for percentage damage caused to the plant, POST Application SETFA: post-emergence; for percentage damage caused to the plant, PRE Application SETFA: pre-emergence. The method, then: as §1

`COCCS(=O)(=O)Nc1c(OC(F)F)ccc(C(=O)Nc2nnnn2C)c1Cl` [Compound 1.014]: in assay [1], the “percentage damage caused to the plant, POST Application AMAPA” value is 5 (5=80-100%) and the “percentage damage caused to the plant, PRE Application AMAPA” value was 5 (5=80-100%). Also, in assay [2], the “percentage damage caused to the plant, POST Application AMARE” value is listed as 5 (5=80-100%) and the “percentage damage caused to the plant, PRE Application AMARE” value is 3 (3=40-59%). Moreover, in assay [3], the “percentage damage caused to the plant, POST Application ECHCG” value is 4 (4=60-79%) and the “percentage damage caused to the plant, PRE Application ECHCG” value is 1 (1=0-19%). In assay [4], the “percentage damage caused to the plant, POST Application IPOHE” value is listed as 3 (3=40-59%) and the “percentage damage caused to the plant, PRE Application IPOHE” value is reported as 1 (1=0-19%). Further, in assay [5], the “percentage damage caused to the plant, POST Application SETFA” value is given as 4 (4=60-79%) and the “percentage damage caused to the plant, PRE Application SETFA” value is recorded as 1 (1=0-19%).
Take `COCCS(=O)(=O)Nc1c(OC(F)(F)F)ccc(C(=O)Nc2nnnn2C)c1Cl` [Compound 1.054]: in assay [1], the “percentage damage caused to the plant, POST Application AMAPA” value is reported as 5 (5=80-100%) and the “percentage damage caused to the plant, PRE Application AMAPA” value was 5 (5=80-100%). Besides, in assay [2], the “percentage damage caused to the plant, POST Application AMARE” value is given as 5 (5=80-100%) and the “percentage damage caused to the plant, PRE Application AMARE” value is given as 5 (5=80-100%). For the same molecule, in assay [3], the “percentage damage caused to the plant, POST Application ECHCG” value is 5 (5=80-100%) and the “percentage damage caused to the plant, PRE Application ECHCG” value is given as 1 (1=0-19%). Besides, in assay [4], the “percentage damage caused to the plant, POST Application IPOHE” value was 4 (4=60-79%) and the “percentage damage caused to the plant, PRE Application IPOHE” value is on record as 3 (3=40-59%). In assay [5], the “percentage damage caused to the plant, POST Application SETFA” value is reported as 4 (4=60-79%) and the “percentage damage caused to the plant, PRE Application SETFA” value is on record as 1 (1=0-19%).
For the molecule `Cn1nnnc1NC(=O)c1ccc(OC(F)(F)F)c(NS(=O)(=O)CC2CC2)c1Cl` [Compound 1.056], in assay [1], the “percentage damage caused to the plant, POST Application AMAPA” value is on record as 5 (5=80-100%) and the “percentage damage caused to the plant, PRE Application AMAPA” value is on record as 5 (5=80-100%). Moreover, in assay [2], the “percentage damage caused to the plant, POST Application AMARE” value is 5 (5=80-100%) and the “percentage damage caused to the plant, PRE Application AMARE” value is reported as 5 (5=80-100%). For the same molecule, in assay [3], the “percentage damage caused to the plant, POST Application ECHCG” value is 5 (5=80-100%) and the “percentage damage caused to the plant, PRE Application ECHCG” value is 5 (5=80-100%). In assay [4], the “percentage damage caused to the plant, POST Application IPOHE” value is 5 (5=80-100%) and the “percentage damage caused to the plant, PRE Application IPOHE” value was 5 (5=80-100%). In assay [5], the “percentage damage caused to the plant, POST Application SETFA” value is listed as 5 (5=80-100%) and the “percentage damage caused to the plant, PRE Application SETFA” value was 5 (5=80-100%).
In the case of `CCCS(=O)(=O)Nc1c(OC(F)F)ccc(C(=O)Nc2nnnn2C)c1Cl` [Compound 1.069], in assay [1], the “percentage damage caused to the plant, POST Application AMAPA” value is 5 (5=80-100%) and the “percentage damage caused to the plant, PRE Application AMAPA” value is recorded as 5 (5=80-100%). In assay [2], the “percentage damage caused to the plant, POST Application AMARE” value is 5 (5=80-100%) and the “percentage damage caused to the plant, PRE Application AMARE” value is reported as 5 (5=80-100%). Further, in assay [3], the “percentage damage caused to the plant, POST Application ECHCG” value is 5 (5=80-100%) and the “percentage damage caused to the plant, PRE Application ECHCG” value is 5 (5=80-100%). In assay [4], the “percentage damage caused to the plant, POST Application IPOHE” value is on record as 5 (5=80-100%) and the “percentage damage caused to the plant, PRE Application IPOHE” value is 4 (4=60-79%). Besides, in assay [5], the “percentage damage caused to the plant, POST Application SETFA” value was 5 (5=80-100%) and the “percentage damage caused to the plant, PRE Application SETFA” value is 4 (4=60-79%).
As for `CC(C)CS(=O)(=O)Nc1c(OC(F)F)ccc(C(=O)Nc2nnnn2C)c1Cl` [Compound 1.070], in assay [1], the “percentage damage caused to the plant, POST Application AMAPA” value is listed as 5 (5=80-100%) and the “percentage damage caused to the plant, PRE Application AMAPA” value is reported as 4 (4=60-79%). Besides, in assay [2], the “percentage damage caused to the plant, POST Application AMARE” value was 5 (5=80-100%) and the “percentage damage caused to the plant, PRE Application AMARE” value is recorded as 4 (4=60-79%). Besides, in assay [3], the “percentage damage caused to the plant, POST Application ECHCG” value was 4 (4=60-79%) and the “percentage damage caused to the plant, PRE Application ECHCG” value is given as 3 (3=40-59%). Moreover, in assay [4], the “percentage damage caused to the plant, POST Application IPOHE” value was 4 (4=60-79%) and the “percentage damage caused to the plant, PRE Application IPOHE” value is reported as 2 (2=20-39%). For the same molecule, in assay [5], the “percentage damage caused to the plant, POST Application SETFA” value is on record as 4 (4=60-79%) and the “percentage damage caused to the plant, PRE Application SETFA” value is on record as 3 (3=40-59%).
Consider `CN(c1c(OC(F)F)ccc(C(=O)Nc2nnnn2C)c1Cl)S(C)(=O)=O` [Compound 1.071], for which, in assay [1], the “percentage damage caused to the plant, POST Application AMAPA” value was 5 (5=80-100%) and the “percentage damage caused to the plant, PRE Application AMAPA” value is recorded as 5 (5=80-100%). In addition, in assay [2], the “percentage damage caused to the plant, POST Application AMARE” value was 5 (5=80-100%) and the “percentage damage caused to the plant, PRE Application AMARE” value was 5 (5=80-100%). Also, in assay [3], the “percentage damage caused to the plant, POST Application ECHCG” value is reported as 5 (5=80-100%) and the “percentage damage caused to the plant, PRE Application ECHCG” value is on record as 5 (5=80-100%). In assay [4], the “percentage damage caused to the plant, POST Application IPOHE” value is 4 (4=60-79%) and the “percentage damage caused to the plant, PRE Application IPOHE” value is recorded as 3 (3=40-59%). In assay [5], the “percentage damage caused to the plant, POST Application SETFA” value is 5 (5=80-100%) and the “percentage damage caused to the plant, PRE Application SETFA” value is recorded as 5 (5=80-100%).
As to `CCCS(=O)(=O)Nc1c(OC(F)(F)F)ccc(C(=O)Nc2nnnn2C)c1Cl` [Compound 1.072], in assay [1], the “percentage damage caused to the plant, POST Application AMAPA” value is reported as 5 (5=80-100%) and the “percentage damage caused to the plant, PRE Application AMAPA” value is recorded as 5 (5=80-100%). Further, in assay [2], the “percentage damage caused to the plant, POST Application AMARE” value is recorded as 5 (5=80-100%) and the “percentage damage caused to the plant, PRE Application AMARE” value was 5 (5=80-100%). The “percentage damage caused to the plant, PRE Application ECHCG” value in assay [3] is listed as 5 (5=80-100%). For the same molecule, in assay [4], the “percentage damage caused to the plant, POST Application IPOHE” value was 5 (5=80-100%) and the “percentage damage caused to the plant, PRE Application IPOHE” value is 5 (5=80-100%). In addition, in assay [5], the “percentage damage caused to the plant, POST Application SETFA” value was 5 (5=80-100%) and the “percentage damage caused to the plant, PRE Application SETFA” value is 5 (5=80-100%).
For `Cn1nnnc1NC(=O)c1ccc(OC(F)(F)F)c(NS(=O)(=O)C2CC2)c1Cl` [Compound 1.073], in assay [1], the “percentage damage caused to the plant, POST Application AMAPA” value was 5 (5=80-100%) and the “percentage damage caused to the plant, PRE Application AMAPA” value is 5 (5=80-100%). Moreover, in assay [2], the “percentage damage caused to the plant, POST Application AMARE” value is 5 (5=80-100%) and the “percentage damage caused to the plant, PRE Application AMARE” value was 5 (5=80-100%). Moreover, in assay [3], the “percentage damage caused to the plant, POST Application ECHCG” value is given as 5 (5=80-100%) and the “percentage damage caused to the plant, PRE Application ECHCG” value is 5 (5=80-100%). Moreover, in assay [4], the “percentage damage caused to the plant, POST Application IPOHE” value is 5 (5=80-100%) and the “percentage damage caused to the plant, PRE Application IPOHE” value is 5 (5=80-100%). Besides, in assay [5], the “percentage damage caused to the plant, POST Application SETFA” value is 5 (5=80-100%) and the “percentage damage caused to the plant, PRE Application SETFA” value is listed as 5 (5=80-100%).
With `CC(C)CS(=O)(=O)Nc1c(OC(F)(F)F)ccc(C(=O)Nc2nnnn2C)c1Cl` [Compound 1.074], in assay [1], the “percentage damage caused to the plant, POST Application AMAPA” value is given as 5 (5=80-100%) and the “percentage damage caused to the plant, PRE Application AMAPA” value is given as 5 (5=80-100%). Moreover, in assay [2], the “percentage damage caused to the plant, POST Application AMARE” value is reported as 5 (5=80-100%) and the “percentage damage caused to the plant, PRE Application AMARE” value is recorded as 5 (5=80-100%). Also, in assay [3], the “percentage damage caused to the plant, POST Application ECHCG” value is 5 (5=80-100%) and the “percentage damage caused to the plant, PRE Application ECHCG” value is listed as 4 (4=60-79%). In assay [4], the “percentage damage caused to the plant, POST Application IPOHE” value was 5 (5=80-100%) and the “percentage damage caused to the plant, PRE Application IPOHE” value is listed as 3 (3=40-59%). In addition, in assay [5], the “percentage damage caused to the plant, POST Application SETFA” value is 5 (5=80-100%) and the “percentage damage caused to the plant, PRE Application SETFA” value is given as 3 (3=40-59%).
